According to US20060160070A1, “Association-based epitome design” (Microsoft Corporation, priority 2004, published 2006):

What was measured:
[1] = target: T1, HLA A*0101 (Homo sapiens, UniProt P04439, A114D/A174V/A182V/D101N/D185E/E176A/E190D/L180R/Q94H/R68K/S129P/T187R/V100A/V91M/W191G); assay: ITOPIA peptide binding assay; conditions: 1.11×10^−4M of peptide
T1 construct: purchased
Method: (§1) Peptide binding, off-rate and affinity were measured according to the protocols described in the ITOPIA Epitope Discovery System Customer Guide. To conduct the experiments, ninety-six (96) micro-titer plates coated with MHC molecules representing the HLA alleles listed in Table 9 were used to identify candidate peptides. Determinations were performed in duplicate using an ELISA plate reader. The peptide binding assay used measures the ability of individual peptides to bind to the HLA molecules under standardized optimal binding conditions. The assay was performed for all the test peptides across the selected HLA alleles. The test peptides identified as “binders” were characterized further in terms of affinity and dissociation experiments. The off-rate assay used evaluates the dissociation of previously bound peptide at defined time points (expressed as the t1/2 value). The affinity assay used measures the relative binding affinities for the MHC molecules determined by incubating candidate peptides identified in the initial peptide binding assay at increasing concentrations (expressed as quantity of peptide needed to achieve 50% binding or ED50 value).
(§2) The binding of the test peptides (Table 8) to the HLA molecules (Table 9) was performed at a concentration of 1.11×10^−4M of peptide under optimal, standardized test conditions. A control peptide was run in parallel on the same plate and at the same concentration as the test peptides. […] The level of binding is expressed as a percent of positive control peptide binding for each allele.

[2] = target: T2, HLA A*0201 (Homo sapiens, UniProt P04439, D140Y/D185E/D98H/E176V/E277Q/G131W/G231S/I119V/I121R/I166T/I218V/L300P/L318F/N151K/N90K/P208A/P217A/Q86G/Q94H/R138H/R169H/T345S); assay: ITOPIA peptide binding assay; conditions: 1.11×10^−4M of peptide
Method: as §1, §2

[3] = target: T3, HLA A*0301 (Homo sapiens, UniProt P04439); assay: ITOPIA peptide binding assay; conditions: 1.11×10^−4M of peptide
T3 construct: purchased
Method: as §1, §2

[4] = target: T4, HLA A*1101 (Homo sapiens, UniProt P04439, A114D/D185E/E176A/F33Y/L180Q/S129P/T187R); assay: ITOPIA peptide binding assay; conditions: 1.11×10^−4M of peptide
T4 construct: purchased
Method: as §1, §2

[5] = target: T5, HLA A*2402 (Homo sapiens, UniProt P04439, D101N/D140Y/D185E/E176V/E190D/F33S/G103R/G107R/I119L/I121M/I306V/K335N/L105A/L180Q/L300P/N151K/N90K/Q86E/Q94H/R106L/R138H/R89G/T104I/T345S/V100E/W191G/Y123F); assay: ITOPIA peptide binding assay; conditions: 1.11×10^−4M of peptide
Method: as §1, §2

[6] = target: T6, HLA B*0702 (Homo sapiens, UniProt P01889); assay: ITOPIA peptide binding assay; conditions: 1.11×10^−4M of peptide
T6 construct: purchased
Method: as §1, §2

[7] = target: T7, HLA B*0801 (Homo sapiens, UniProt P01889, A93T/A95T/D138N/E176V/E187T/K202T/Q94N/R180D/S35A/V36M/Y33D/Y91F); assay: ITOPIA peptide binding assay; conditions: 1.11×10^−4M of peptide
T7 construct: purchased
Method: as §1, §2

[8] = target: T8, HLA B*1501 (Homo sapiens, UniProt P01889, A329T/A93T/A95T/C349S/D201E/D98Y/E187L/E204Q/E69M/E70A/K202T/N87E/Q94N/R155S/R180W/S121R/S35A/S48A/V306I/V36M/Y140S/Y91S); assay: ITOPIA peptide binding assay; conditions: 1.11×10^−4M of peptide
T8 construct: purchased
Method: as §1, §2

[9] = target: T2, HLA A*0201; assay: ITOPIA off-rate assay; format: binding; conditions: 37° C., one-phase exponential decay
Method: as §1
(§3) The peptides initially identified as binders were evaluated for stability based on their ability to remain bound to MHC molecules at 37° C. at time points 0, 0.5, 1, 1.5, 2, 4, 6 and 8 hours. […] The values obtained for each time point (in duplicate) are expressed (Table 11) as a percentage of the positive control. To calculate the t1/2 and goodness-of-fit, as measured by r^2, for each peptide, a one-phase exponential decay curve, with a plateau given equal to 0, was generated using […] PRISM software.

[10] = target: T1, HLA A*0101; assay: Multi-parametric analysis iScore; format: binding; parameters: scale not given here; conditions: index integrating t1/2 and ED50
Method: (§4) Multi-parametric analysis was performed to integrate the half-life (t½) and ED50 parameters in an index (iScore). The iScore (Table 13) reflects the capability of a peptide to reconstitute with MHC molecules in a stable complex, defining its overall level of binding.

[11] = target: T2, HLA A*0201; assay: Multi-parametric analysis iScore; format: binding; parameters: scale not given here; conditions: index integrating t1/2 and ED50
Method: as §4

[12] = target: T3, HLA A*0301; assay: Multi-parametric analysis iScore; format: binding; parameters: scale not given here; conditions: index integrating t1/2 and ED50
Method: as §4

[13] = target: T4, HLA A*1101; assay: Multi-parametric analysis iScore; format: binding; parameters: scale not given here; conditions: index integrating t1/2 and ED50
Method: as §4

[14] = target: T5, HLA A*2402; assay: Multi-parametric analysis iScore; format: binding; parameters: scale not given here; conditions: index integrating t1/2 and ED50
Method: as §4

[15] = target: T6, HLA B*0702; assay: Multi-parametric analysis iScore; format: binding; parameters: scale not given here; conditions: index integrating t1/2 and ED50
Method: as §4

[16] = target: T7, HLA B*0801; assay: Multi-parametric analysis iScore; format: binding; parameters: scale not given here; conditions: index integrating t1/2 and ED50
Method: as §4

[17] = target: T8, HLA B*1501; assay: Multi-parametric analysis iScore; format: binding; parameters: scale not given here; conditions: index integrating t1/2 and ED50
Method: as §4

[18] = target: T5, HLA A*2402; assay: ITOPIA off-rate assay; format: binding; conditions: 37° C., one-phase exponential decay
Method: as §1, §3

| Substance | level of binding, percent of positive control peptide binding [1] | level of binding, percent of positive control peptide binding [2] | level of binding, percent of positive control peptide binding [3] | level of binding, percent of positive control peptide binding [4] | level of binding, percent of positive control peptide binding [5] | level of binding, percent of positive control peptide binding [6] | level of binding, percent of positive control peptide binding [7] | level of binding, percent of positive control peptide binding [8] | A*0201 t1/2 [9] [h] | iScore [10] | iScore [11] | iScore [12] | iScore [13] | iScore [14] | iScore [15] | iScore [16] | iScore [17] | A*2402 t1/2 [18] [h] |
| --- | --- | --- | --- | --- | --- | --- | --- | --- | --- | --- | --- | --- | --- | --- | --- | --- | --- | --- |
| ALFYKLDVV [compound 72] | 4% of positive control | 80% of positive control | 5% of positive control | 1% of positive control | 14% of positive control | 3% of positive control | 3% of positive control | 4% of positive control | 4.0 | 0 | 0.484 | 0 | 0 | 0 | 0 | 0 | 0 |  |
| VTLTEEAEL [compound 156] | 1% of positive control | 26% of positive control | 0% of positive control | 1% of positive control | 11% of positive control | 0% of positive control | 4% of positive control | 7% of positive control | 1.2 | 0 | 0.110 | 0 | 0 | 0 | 0 | 0 | 0 |  |
| 155 (HNEWTLELL; HIV) [compound 155] | 0% of positive control | 5% of positive control | 0% of positive control | 1% of positive control | 13% of positive control | 1% of positive control | 3% of positive control | 0% of positive control |  | 0 | 0 | 0 | 0 | 0 | 0 | 0 | 0 |  |
| 70 (VPLTEEAEL; HIV) [compound 70] | 1% of positive control | 5% of positive control | 0% of positive control | 1% of positive control | 6% of positive control | 4% of positive control | 4% of positive control | 4% of positive control |  | 0 | 0 | 0 | 0 | 0 | 0 | 0 | 0 |  |
| YNEWTLELL [compound 22] | 0% of positive control | 7% of positive control | 0% of positive control | 1% of positive control | 35% of positive control | 2% of positive control | 3% of positive control | 0% of positive control |  | 0 | 0 | 0 | 0 | 0.071 | 0 | 0 | 0 | 1.5 |
